# Experimental data: patent US5427766A, “Radiolabeled steroids for use in radiochemical-guided surgery” (priority 1993, dated 1995)
# How the values were obtained:
# Design in all cases: species or system athymic female NCR-Nu Mice
# [1] = system: MCF-7 tumors located intraperitoneally; experiment: In vivo localization (biodistribution) in athymic female nude mice bearing intraperitoneal MCF-7 tumors; details: for Percent Injected Dose/Gram, muscle: mouse, in vivo, ip
# Protocol: (§1) In vivo localization of 11β-ethyl-17α-(Z)-[^125 I](iodovinyl)estra-3,17β-diol (5) and a control compound 16α-[^125 I]iodovinyl-3,17β-estradiol (commercially available from DuPont New England Nuclear, MA) was determined in athymic female NCR-Nu Mice (purchased from Simonsen Laboratories, Gilroy, Calif.) bearing subcutaneous MCF-7(ER+) breast tumor xenografts. Prior to injection of the compounds, the mice were each implanted with fragments of MCF-7 breast tumor (approximately 2 cubic millimeters) in the subcutis of the left flank. At approximately the same time, a 1.7 mg estradiol pellet (Innovative Research of America, Toledo, Ohio) was implanted in the scapular region. The tumors were allowed to grow until they reached between 50 and 200 mg by visual inspection (approximately four to five weeks) prior to injection of the test compounds. One day prior to injection of the test compounds, the estradiol pellet was removed.
# (§2) The mice were each injected via tail vein with between 3 (1.1×10^5 Bq) and 6 μCi ([…]) ^125 I in approximately 50 μL of phosphate buffered saline. The mice were sacrificed at various time intervals. After exsanguination, the selected organ/tissue were excised, weighed and radioactivity measured in a gamma counter. The counts per minute (cpm) of 125I in each tissue was determined and expressed as cpm per gram of tissue per injected dose multiplied by 100 (percent injected dose/gram).
# The procedure of Example 3 was followed except each mouse was inoculated intraperitoneally with MCF-7 breast carcinoma cell line (7.5×10^6 cell/50 μL) rather than implanted subcutaneously with MCF-7 breast tumor. One day prior to this procedure, a 1.7 mg estradiol pellet was implanted subcutaneously in the scapular region. The tumor cells were allowed to form solid tumor nodules for 4 to 6 weeks prior to injection of the test compounds.
# [2] = system: MCF-7(ER+) breast tumor xenografts; experiment: In vivo localization (biodistribution) in athymic female nude mice bearing subcutaneous MCF-7 tumor xenografts
# Protocol: as §1, §2
# [3] = system: MCF-7(ER+) breast tumor xenografts; experiment: In vivo biolocalization with gamma detecting probe, tumor/background ratio, MCF-7 (ER+) tumor; details: mouse, in vivo
# Protocol: (§3) In vivo biolocalization of 11β-ethyl-17α-(Z)-[^125 I](iodovinyl)estra-3,17β-diol (5) and a control compound 16α-[^125 I](iodovinyl)-3,17β-estradiol was determined in athymic female NCR-Nu Mice bearing subcutaneous MCF-7(ER+) breast tumor xenografts and MDA-MB-231 (ER-) breast tumor xenografts. The mice were at least 5 weeks old prior to injection into the right-hand flank with […] of MCF-7 breast carcinoma cells ([…]). One day prior to this procedure, the mice were implanted subcutaneously with a 1.7 mg estradiol pellet in the scapular region. Four to six weeks post-injection of the MCF-7 cells the estradiol pellet was removed and the mice inoculated in the left hind flank with 75 μL NDA-MB-231 breast tumor cells ([…]). Seven to ten days prior to injection of the test compounds, an estradiol pellet was again implanted in the scapular region. One to two days prior to injection of the test compounds, the estradiol pellet was removed, and 5 mice arbitrarily assigned to each test group.
# (§4) The mice were each injected via tail vein with between 3 ([…]) and […] ([…]) 125 iodine in approximately […] of phosphate-buffered saline. At various time intervals after injection of the test compounds, each group of mice was anesthetized with methoxyflurane in order to measure the radioactivity over the ER+ and ER- tumors and the front leg for use as a background and the thoraxic area which served as a blood pool control using a gamma detecting probe (RIGS ^TM Model 1001 control unit, Neoprobe Corporation, Columbus, Ohio). Three 20 to 60 second counts were recorded at each area measured at each time point.
# (§5) ^c Tu/Bkg = Mean(1-5) of (mean tumor countsn - mean foreleg
# (§6) background countsn)/mean foreleg background
# [4] = system: MDA-MB-231 (ER-) breast tumor xenografts; experiment: In vivo biolocalization with gamma detecting probe, tumor/background ratio, MDA-MB-231 (ER-) tumor; details: mouse, in vivo
# Protocol: as §3, §4, §5, §6
smiles,measurement,setting,value
"CC[C@H]1C[C@@]2(C)[C@@H](CC[C@@]2(O)/C=C\[125I])[C@@H]2CCc3cc(O)ccc3[C@@H]12 [Compound 5, 11β-ethyl-17α-(Z)-[^125 I](iodovinyl)estra-3,17β-diol]",radioactivity in the uteri and tumors,"[1]; 48 hours post-injection, uteri and tumors, intraperitoneal MCF-7",still contain a significant amount of radioactivity
same,"Percent Injected Dose/Gram, fat","[1]; Fat, 48 hours, tail vein, intraperitoneal MCF-7, mean, n = 5",0.00 Percent Injected Dose/Gram
same,binding affinity in vivo with retention of the targeted-site,"[1]; intraperitoneal MCF-7, conclusion in words",high binding affinity in vivo with retention of the targeted-site
same,"Percent Injected Dose/Gram, muscle",[1]; 1440 min,0.00 Percent Injected Dose/Gram
same,"Percent Injected Dose/Gram, muscle",[1]; 2880 min,0.00 Percent Injected Dose/Gram
same,radioactivity in the uteri and tumors,"[2]; 48 hours post-injection, uteri and tumors, subcutaneous MCF-7",still contain a significant amount of radioactivity
same,"Percent Injected Dose/Gram, fat","[2]; Fat, 48 hours, tail vein, subcutaneous MCF-7, mean, n = 5",0.00 Percent Injected Dose/Gram
same,"Percent Injected Dose/Gram, muscle","[2]; 24 hours, tail vein, subcutaneous MCF-7, mean, n = 5",0.00 Percent Injected Dose/Gram
same,"Percent Injected Dose/Gram, muscle","[2]; 48 hours, tail vein, subcutaneous MCF-7, mean, n = 5",0.00 Percent Injected Dose/Gram
same,binding affinity in vivo with retention of the targeted-site,"[2]; subcutaneous MCF-7, conclusion in words",high binding affinity in vivo with retention of the targeted-site
same,Tumor/Background Ratio (Tu/Bkg),[3],4.70 ± 1.85
same,tumor to background ratios (in words),[3],good tumor to background ratios
same,tumor to background ratios / localization at the tumor site (in words),[3],maintained a high tumor to background ratios
same,Tumor/Background Ratio (Tu/Bkg),[3]; 120 min,4.74 ± 2.04
same,Tumor/Background Ratio (Tu/Bkg),[3]; 360 min,7.32 ± 0.60
same,Tumor/Background Ratio (Tu/Bkg),[3]; 1440 min,3.53 ± 1.30
same,Tumor/Background Ratio (Tu/Bkg),[3]; 2880 min,1.79 ± 1.23
same,Tumor/Background Ratio (Tu/Bkg),[4],2.44 ± 1.83
same,Tumor/Background Ratio (Tu/Bkg),[4]; 120 min,4.34 ± 1.37
same,Tumor/Background Ratio (Tu/Bkg),[4]; 360 min,4.44 ± 2.62
same,Tumor/Background Ratio (Tu/Bkg),[4]; 1440 min,0.87 ± 0.54
same,Tumor/Background Ratio (Tu/Bkg),[4]; 2880 min,0.03 ± 0.34
